Patent US9376392B2, “2-(tert-butoxy)-2-(7-methylquinolin-6-yl) acetic acid derivatives for treating AIDS” (Gilead Sciences, Inc., priority 2012, dated 2016)
pEC50: −log10 of the molar value.

Tested on: HIV-IIIb (MT-4 cells)
Test: Test A: Antiviral Assays in MT4 Cells
Type: cell-based
Conditions: MT4, 120 h, MT-4 cells infected with HIV-IIIb, 5 days of incubation, CellTiter-Glo readout
Description: The antiviral properties of a compound disclosed herein may be determined using Test A described below.
Test A: Antiviral Assays in MT4 Cells
For the antiviral assay utilizing MT-4 cells, 0.4 μL of […] test concentration of 3-fold serially diluted compound in DMSO was added to 40 μL of cell growth medium (RPMI 1640, 10% FBS, 1% penicillin/Streptomycin, 1% L-Glutamine, 1% HEPES) in each well of 384-well assay plates (10 concentrations) in quadruplicate.
1 mL aliquots of 2×10e6 MT-4 cells are pre-infected for 1 and 3 hrs respectively, @ 37° C. with 25 μL (MT4) or of either cell growth medium (mock-infected) or a fresh 1:250 dilution of an HIV-IIIb concentrated ABI stock (0.004 m.o.i. for MT4 cells). Infected and uninfected cells are diluted in cell growth medium and 35 μL of 2000 (for MT4) cells is added to each well of the assay plates.
Assay plates were then incubated in a 37° C. incubator. After 5 days of incubation, […] 2× concentrated CellTiter-Glo™ Reagent (catalog #G7573, Promega Biosciences, Inc., Madison, Wis.) was added to each well of the assay plate. Cell lysis was carried out by incubating at room temperature for 2-3 min and then chemiluminescence was read using the Envision reader (PerkinElmer).

Row | SMILES | pEC50
1 | Cc1cc2nc(OCc3ccc(S(N)(=O)=O)cc3)ccc2c(-c2ccc3c4c(ccnc24)CCO3)c1[C@H](OC(C)(C)C)C(=O)O (atropisomer, axis not shown) [Example 17, (S)-2-tert-Butoxy-2-((R)-5-(2,3-dihydropyrano[4,3,2-de]quinolin-7-yl)-7-methyl-2-(4-sulfamoylbenzyloxy)quinolin-6-yl)acetic acid] | 7.08
2 | Cc1cc2c(ccc(=O)n2CC2CC2)c(-c2ccc3c4c(ccnc24)CCO3)c1[C@H](OC(C)(C)C)C(=O)O (atropisomer, axis not shown) [Example 1, (S)-2-tert-Butoxy-2-((R)-1-(cyclopropylmethyl)-5-(2,3-dihydropyrano[4,3,2-de]quinolin-7-yl)-7-methyl-2-oxo-1,2-dihydroquinolin-6-yl)acetic acid] | 6.39
3 | Cc1cc2nc(OCc3ccc(C(N)=O)cc3)ccc2c(-c2ccc3c4c(ccnc24)CCO3)c1[C@H](OC(C)(C)C)C(=O)O (atropisomer, axis not shown) [Example 8, (S)-2-tert-Butoxy-2-((R)-2-(4-carbamoylbenzyloxy)-5-(2,3-dihydropyrano[4,3,2-de]quinolin-7-yl)-7-methylquinolin-6-yl)acetic acid] | 7.43
4 | Cc1cc2c(ccc(=O)n2Cc2cccc(S(C)(=O)=O)c2)c(-c2ccc(Cl)cc2)c1[C@H](OC(C)(C)C)C(=O)O [Example 6, (S)-2-tert-Butoxy-2-(5-(4-chlorophenyl)-7-methyl-1-(3-(methylsulfonyl)benzyl)-2-oxo-1,2-dihydroquinolin-6-yl)acetic acid] | 6.54
5 | Cc1cc2nc(N)ccc2c(-c2ccc3c4c(ccnc24)CCO3)c1[C@H](OC(C)(C)C)C(=O)O (atropisomer, axis not shown) [Example 47, (S)-2-((R)-2-Amino-5-(2,3-dihydropyrano[4,3,2-de]quinolin-7-yl)-7-methylquinolin-6-yl)-2-tert-butoxyacetic acid] | 6.53
6 | Cc1cc2nc(OCc3ccccc3)ccc2c(-c2ccc3c4c(ccnc24)CCO3)c1[C@H](OC(C)(C)C)C(=O)O (atropisomer, axis not shown) [Example 12, (S)-2-((R)-2-(Benzyloxy)-5-(2,3-dihydropyrano[4,3,2-de]quinolin-7-yl)-7-methylquinolin-6-yl)-2-tert-butoxyacetic acid] | 7.30
7 | Cc1cc2nc(C(C)(C)O)ccc2c(-c2ccc3c4c(ccnc24)CCO3)c1[C@H](OC(C)(C)C)C(=O)O (atropisomer, axis not shown) [Example 51, (S)-2-tert-Butoxy-2-((R)-5-(2,3-dihydropyrano[4,3,2-de]quinolin-7-yl)-2-(2-hydroxypropan-2-yl)-7-methylquinolin-6-yl)acetic acid] | 6.73
8 | Cc1cc2nc(OCc3ccccc3S(C)(=O)=O)ccc2c(-c2ccc3c4c(ccnc24)CCO3)c1[C@H](OC(C)(C)C)C(=O)O (atropisomer, axis not shown) [Example 10, (S)-2-tert-Butoxy-2-((R)-5-(2,3-dihydropyrano[4,3,2-de]quinolin-7-yl)-7-methyl-2-(2-(methylsulfonyl)benzyloxy)quinolin-6-yl)acetic acid] | 8.06

Same assay, conditions: MT-4 cells infected with HIV-IIIb, 5 days of incubation, CellTiter-Glo readout

Row | SMILES | pEC50
9 | CCCC(C)(C)O[C@H](C(=O)O)c1c(C)cc2nc(C)ccc2c1-c1ccc2c3c(ccnc13)CCO2 (atropisomer, axis not shown) [Example 40, (2S)-2-((S)-5-(2,3-Dihydropyrano[4,3,2-de]quinolin-7-yl)-2,7-dimethylquinolin-6-yl)-2-(2-methylpentan-2-yloxy)acetic acid] | 5.56
10 | CCC(C)(CC)O[C@H](C(=O)O)c1c(C)cc2nc(C)ccc2c1-c1ccc2c3c(ccnc13)CCO2 (atropisomer, axis not shown) [Example 41, (S)-2-((R)-5-(2,3-Dihydropyrano[4,3,2-de]quinolin-7-yl)-2,7-dimethylquinolin-6-yl)-2-(3-methylpentan-3-yloxy)acetic acid] | 7.41
